This note sets out measurements from ChEMBL document CHEMBL1201861, “Genomics of Drug Sensitity in Cancer screening data, Wellcome Trust Sanger Institute”.

A value given as a limit tells only on which side of the number the result lay.

The term IC50 denotes the midpoint of a concentration-inhibition curve. Higher therefore signals weaker potency in that assay.

The test system of one experiment is SCC-4. The experiment in a line: cells. The experiment is classed as functional, cell-based, Homo sapiens.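 Note: growth inhibition of human SCC-4 cells, read out as cell viability.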
The next experiment relates to 647-V. Briefly: cells. The experiment is classed as functional, cell-based, Homo sapiens.
The test system of a further experiment is SBC-5. Briefly: cells. The format is functional, cell-based, Homo sapiens.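 Note: cell viability assay read-out, IC50 is the concentration that inhibits growth of the cells.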
The next experiment has as its system SW780. The experiment in a line: cells. The format is functional, cell-based, Homo sapiens.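 Note: growth inhibition of the cells, read out with a cell viability assay.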
The next experiment deals with OAW-28. The experiment in a line: cells. The format is functional, cell-based, Homo sapiens.
The subject of another experiment is TI-73. The experiment in a line: cells. The experiment is classed as functional, cell-based, Homo sapiens.
In a further experiment the test system is DU-145. Briefly: cells. The experiment is classed as functional, cell-based, Homo sapiens.
The next experiment deals with COR-L105. Briefly: cells. The experiment is classed as functional, cell-based, Homo sapiens.
A further experiment deals with NCI-H1975. Briefly: cells. The format is functional, cell-based, Homo sapiens.
A further experiment deals with LCLC-103H cell line. The experiment in a line: cells. The format is functional, cell-based, Homo sapiens.
For a further experiment, the system named is BEN. The experiment in a line: cells. The format is functional, cell-based, Homo sapiens. The conditions noted are these: Homo sapiens, BEN.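 Note: growth inhibition of the BEN cell line, read out with a cell viability assay.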
A further experiment has as its system HCT-15. Briefly: cells. The format is functional, cell-based, Homo sapiens.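 Note: cell viability readout, IC50 reflecting suppression of HCT-15 cell growth.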
Another experiment deals with SAS. The experiment in a line: cells. The format is functional, cell-based, Homo sapiens.
In another experiment the test system is HuP-T4. The experiment in a line: cells. The experiment is classed as functional, cell-based, Homo sapiens.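 Note: cell viability assay measuring how much HuP-T4 cell growth is inhibited.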
The test system of a further experiment is SK-MEL-28. Briefly: cells. The experiment is classed as functional, cell-based, Homo sapiens.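 Note: growth inhibition of human SK-MEL-28 cells, read out with a cell viability assay.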
In another experiment the test system is UACC-62. Briefly: cells. The experiment is classed as functional, cell-based, Homo sapiens.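 Note: growth inhibition of human UACC-62 cells, read out by a cell viability assay.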
Another experiment has as its system Panc1005. Briefly: cells. The format is functional, cell-based, Homo sapiens.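 Note: growth inhibition of human PANC-10-05 cells, measured by a cell viability assay.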
A further experiment concerns NCI-H1666. The experiment in a line: cells. The format is functional, cell-based, Homo sapiens.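 Note: growth inhibition of the cell line, read out with a cell viability assay.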
For a further experiment, the system named is EFM-19. Briefly: cells. The experiment is classed as functional, cell-based, Homo sapiens.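 Note: growth inhibition of human EFM-19 cells, measured in a cell viability assay.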
A further experiment deals with GCT. The experiment in a line: cells. The format is functional, cell-based, Homo sapiens.
A further experiment relates to EW-7. The experiment in a line: SANGER: Inhibition of human EW-7 cell growth in a cell viability assay. The experiment is classed as functional, cell-based. The conditions noted are these: Homo sapiens, EW-7.
Another experiment has as its system DMS-53. Briefly: cells. The experiment is classed as functional, cell-based, Homo sapiens. The conditions noted are these: Homo sapiens, DMS-53.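 Note: cell viability assay measuring growth inhibition of human DMS-53 cells.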

Description for 647-V: SANGER: Inhibition of human 647-V cell growth in a cell viability assay.
Description for BEN: SANGER: Inhibition of human BEN cell growth in a cell viability assay.
Description for COR-L105: SANGER: Inhibition of human COR-L105 cell growth in a cell viability assay.
Description for DMS-53: SANGER: Inhibition of human DMS-53 cell growth in a cell viability assay.
Description for DU-145: SANGER: Inhibition of human DU-145 cell growth in a cell viability assay.
Description for EFM-19: SANGER: Inhibition of human EFM-19 cell growth in a cell viability assay.
Description for GCT: SANGER: Inhibition of human GCT cell growth in a cell viability assay.
Description for HCT-15: SANGER: Inhibition of human HCT-15 cell growth in a cell viability assay.
Description for HuP-T4: SANGER: Inhibition of human HuP-T4 cell growth in a cell viability assay.
Description for LCLC-103H cell line: SANGER: Inhibition of human LCLC-103H cell growth in a cell viability assay.
Description for NCI-H1666: SANGER: Inhibition of human NCI-H1666 cell growth in a cell viability assay.
Description for NCI-H1975: SANGER: Inhibition of human NCI-H1975 cell growth in a cell viability assay.
Description for OAW-28: SANGER: Inhibition of human OAW-28 cell growth in a cell viability assay.
Description for Panc1005: SANGER: Inhibition of human PANC-10-05 cell growth in a cell viability assay.
Description for SAS: SANGER: Inhibition of human SAS cell growth in a cell viability assay.
Description for SBC-5: SANGER: Inhibition of human SBC-5 cell growth in a cell viability assay.
Description for SCC-4: SANGER: Inhibition of human SCC-4 cell growth in a cell viability assay.
Description for SK-MEL-28: SANGER: Inhibition of human SK-MEL-28 cell growth in a cell viability assay.
Description for SW780: SANGER: Inhibition of human SW780 cell growth in a cell viability assay.
Description for TI-73: SANGER: Inhibition of human TI-73 cell growth in a cell viability assay.
Description for UACC-62: SANGER: Inhibition of human UACC-62 cell growth in a cell viability assay.

On to `CN(C)C(=N)NC(=N)N` [METFORMIN], for which the IC50 is > 20000 µM with SCC-4 (Homo sapiens, SCC-4); > 20000 µM with 647-V (Homo sapiens, 647-V); 17100 µM in the experiment with SBC-5 (Homo sapiens, SBC-5); 12400 µM with SW780 (Homo sapiens, SW780); > 20000 µM with OAW-28 (Homo sapiens, OAW-28); 13600 µM with TI-73 (Homo sapiens, TI-73). Besides, the IC50 is 838 µM in the experiment with DU-145 (Homo sapiens, DU-145); > 20000 µM in the experiment with COR-L105 (Homo sapiens, COR-L105); 11700 µM in the experiment with NCI-H1975 (Homo sapiens, NCI-H1975); > 20000 µM in the experiment with LCLC-103H cell line (Homo sapiens, LCLC-103H); 15400 µM with BEN; 8890 µM in the experiment with HCT-15 (Homo sapiens, HCT-15). Also, in the experiment on SAS (Homo sapiens, SAS), half-maximal inhibition (IC50) required 11300 µM.
Take `CO[C@H]1C[C@@H]2CC[C@@H](C)[C@@](O)(O2)C(=O)C(=O)N2CCCC[C@H]2C(=O)O[C@H]([C@H](C)C[C@@H]2CC[C@@H](OC(=O)C(C)(CO)CO)[C@H](OC)C2)CC(=O)[C@H](C)/C=C(\C)[C@@H](O)[C@@H](OC)C(=O)[C@H](C)C[C@H](C)/C=C/C=C/C=C/1C` [TEMSIROLIMUS]: the IC50 was > 0.2 µM in the experiment on SCC-4 (Homo sapiens, SCC-4); > 0.2 µM with HuP-T4 (Homo sapiens, HuP-T4); > 0.2 µM in the experiment on 647-V (Homo sapiens, 647-V); 0.131 µM with SK-MEL-28 (Homo sapiens, SK-MEL-28); > 0.2 µM with UACC-62 (Homo sapiens, UACC-62); 0.103 µM in the experiment with SBC-5 (Homo sapiens, SBC-5). Further, the IC50 was 0.155 µM in the experiment with Panc1005 (Homo sapiens, Panc1005); 0.00483 µM with SW780 (Homo sapiens, SW780); > 0.2 µM in the experiment with OAW-28 (Homo sapiens, OAW-28); > 0.2 µM with NCI-H1666 (Homo sapiens, NCI-H1666); > 0.2 µM in the experiment on TI-73 (Homo sapiens, TI-73); 0.0815 µM in the experiment on EFM-19 (Homo sapiens, EFM-19). Besides, the IC50 in the experiment with DU-145 (Homo sapiens, DU-145) is > 0.2 µM; in the experiment with COR-L105 (Homo sapiens, COR-L105) it was 0.0545 µM; in the experiment on NCI-H1975 (Homo sapiens, NCI-H1975) it was > 0.2 µM; in the experiment on LCLC-103H cell line (Homo sapiens, LCLC-103H) it was > 0.2 µM; in the experiment with BEN it was 0.0315 µM; in the experiment on GCT (Homo sapiens, GCT) it was > 0.2 µM. The IC50 with HCT-15 (Homo sapiens, HCT-15) is > 0.2 µM; in the experiment with SAS (Homo sapiens, SAS), > 0.2 µM.
As for `Nc1cccc2c1CN(C1CCC(=O)NC1=O)C2=O` (stereo not drawn) [LENALIDOMIDE], the IC50 in the experiment on SCC-4 (Homo sapiens, SCC-4) was > 5 µM; with HuP-T4 (Homo sapiens, HuP-T4), > 5 µM; with 647-V (Homo sapiens, 647-V), > 5 µM; in the experiment with SK-MEL-28 (Homo sapiens, SK-MEL-28), > 5 µM; with UACC-62 (Homo sapiens, UACC-62) it was > 5 µM; in the experiment with SBC-5 (Homo sapiens, SBC-5) it was > 5 µM. In addition, the IC50 in the experiment with Panc1005 (Homo sapiens, Panc1005) was > 5 µM; in the experiment with SW780 (Homo sapiens, SW780), > 5 µM; with OAW-28 (Homo sapiens, OAW-28) it was > 5 µM; with NCI-H1666 (Homo sapiens, NCI-H1666), > 5 µM; with TI-73 (Homo sapiens, TI-73), > 5 µM; in the experiment with EFM-19 (Homo sapiens, EFM-19), > 5 µM. Also, the IC50 in the experiment on DU-145 (Homo sapiens, DU-145) is > 5 µM; in the experiment with COR-L105 (Homo sapiens, COR-L105) it was > 5 µM; with NCI-H1975 (Homo sapiens, NCI-H1975), > 5 µM; in the experiment with LCLC-103H cell line (Homo sapiens, LCLC-103H) it was > 5 µM; with BEN, > 5 µM; in the experiment on GCT (Homo sapiens, GCT), > 5 µM. The IC50 with HCT-15 (Homo sapiens, HCT-15) was > 5 µM; with SAS (Homo sapiens, SAS), > 5 µM.
With CISPLATIN, the IC50 with SCC-4 (scc-4) came out at 31 µM; in the experiment with HuP-T4 (hup-t4), 37.4 µM; in the experiment on 647-V (647-v), 114 µM; in the experiment with SK-MEL-28 (sk-mel-28), 22.2 µM; in the experiment with UACC-62 (uacc-62), 12.4 µM; in the experiment on SBC-5 (sbc-5) it was 70.1 µM. The IC50 in the experiment with Panc1005 (panc1005) came out at 8.61 µM; in the experiment with SW780 (sw780), 14 µM; in the experiment with OAW-28 (oaw-28), 22.9 µM; in the experiment with NCI-H1666 (nci-h1666), 56.5 µM; with TI-73 (ti-73) it was 8.53 µM; in the experiment on EFM-19 (efm-19), 245 µM. In addition, the IC50 in the experiment with DU-145 (du-145) amounted to 11.1 µM; in the experiment on COR-L105 (cor-l105), 22.7 µM; in the experiment with NCI-H1975 (nci-h1975), 409 µM; with LCLC-103H cell line (lclc-103h), 28.2 µM; with GCT (gct) it was 6.12 µM; in the experiment with HCT-15 (hct-15), 267 µM. Further, the half-maximal inhibitory concentration (IC50) in the experiment on SAS (sas) was found to be 18.5 µM.
With `CS(=O)(=O)c1ccc(C(=O)Nc2ccc(Cl)c(-c3ccccn3)c2)c(Cl)c1` [VISMODEGIB], the half-maximal inhibitory concentration (IC50) was > 10 µM in the experiment on SCC-4 (Homo sapiens, SCC-4); > 10 µM in the experiment with HuP-T4 (Homo sapiens, HuP-T4); > 10 µM in the experiment on 647-V (Homo sapiens, 647-V); > 10 µM in the experiment with SK-MEL-28 (Homo sapiens, SK-MEL-28); > 10 µM in the experiment with UACC-62 (Homo sapiens, UACC-62); > 10 µM in the experiment with SBC-5 (Homo sapiens, SBC-5). Further, the IC50 in the experiment with Panc1005 (Homo sapiens, Panc1005) was > 10 µM; with SW780 (Homo sapiens, SW780), > 10 µM; with OAW-28 (Homo sapiens, OAW-28), > 10 µM; with NCI-H1666 (Homo sapiens, NCI-H1666), > 10 µM; in the experiment with TI-73 (Homo sapiens, TI-73) it was > 10 µM; in the experiment with EFM-19 (Homo sapiens, EFM-19) it was > 10 µM. Moreover, the half-maximal inhibitory concentration (IC50) in the experiment with DU-145 (Homo sapiens, DU-145) was > 10 µM; with COR-L105 (Homo sapiens, COR-L105), > 10 µM; in the experiment on NCI-H1975 (Homo sapiens, NCI-H1975), > 10 µM; in the experiment with LCLC-103H cell line (Homo sapiens, LCLC-103H), > 10 µM; with BEN it was > 10 µM; with GCT (Homo sapiens, GCT) it was > 10 µM. The 50% inhibitory concentration (IC50) in the experiment with HCT-15 (Homo sapiens, HCT-15) is > 10 µM; with SAS (Homo sapiens, SAS) it was > 10 µM.
Consider `Cc1cn(-c2cc(NC(=O)c3ccc(C)c(Nc4nccc(-c5cccnc5)n4)c3)cc(C(F)(F)F)c2)cn1` [NILOTINIB], for which the IC50 with SCC-4 (Homo sapiens, SCC-4) is > 2 µM; in the experiment on HuP-T4 (Homo sapiens, HuP-T4), > 2 µM; in the experiment with 647-V (Homo sapiens, 647-V), > 2 µM; with SK-MEL-28 (Homo sapiens, SK-MEL-28) it was > 2 µM; in the experiment on UACC-62 (Homo sapiens, UACC-62), > 2 µM; in the experiment on SBC-5 (Homo sapiens, SBC-5) it was > 2 µM. The IC50 with Panc1005 (Homo sapiens, Panc1005) was > 2 µM; with SW780 (Homo sapiens, SW780), > 2 µM; in the experiment on OAW-28 (Homo sapiens, OAW-28), > 2 µM; with NCI-H1666 (Homo sapiens, NCI-H1666), > 2 µM; in the experiment with TI-73 (Homo sapiens, TI-73), > 2 µM; with EFM-19 (Homo sapiens, EFM-19) it was > 2 µM. The half-inhibitory concentration (IC50) in the experiment with DU-145 (Homo sapiens, DU-145) is > 2 µM; in the experiment with COR-L105 (Homo sapiens, COR-L105), > 2 µM; in the experiment on NCI-H1975 (Homo sapiens, NCI-H1975), > 2 µM; in the experiment on LCLC-103H cell line (Homo sapiens, LCLC-103H) it was > 2 µM; in the experiment on BEN, > 2 µM; in the experiment on GCT (Homo sapiens, GCT) it was > 2 µM. Moreover, the 50% inhibitory concentration (IC50) was > 2 µM with HCT-15 (Homo sapiens, HCT-15) and > 2 µM in the experiment with SAS (Homo sapiens, SAS).
`CC(C)c1ccccc1Cc1cc(C(=O)Nc2ccc(S(=O)(=O)c3ccccc3C(C)(C)C)cc2)c(O)c(O)c1O`: the concentration for half-maximal inhibition (IC50) in the experiment with SCC-4 (Homo sapiens, SCC-4) was found to be 1.3 µM; with HuP-T4 (Homo sapiens, HuP-T4) it was 0.543 µM; in the experiment with 647-V (Homo sapiens, 647-V), 0.0884 µM; in the experiment on SK-MEL-28 (Homo sapiens, SK-MEL-28), 1.39 µM; in the experiment with UACC-62 (Homo sapiens, UACC-62), 0.0344 µM; in the experiment on SBC-5 (Homo sapiens, SBC-5), 0.147 µM. Moreover, the IC50 in the experiment on Panc1005 (Homo sapiens, Panc1005) turned out to be 1.1 µM; in the experiment with SW780 (Homo sapiens, SW780) it was 5.8 µM; in the experiment on OAW-28 (Homo sapiens, OAW-28) it was 0.294 µM; in the experiment with NCI-H1666 (Homo sapiens, NCI-H1666), 0.378 µM; in the experiment on EFM-19 (Homo sapiens, EFM-19) it was 1.59 µM; with DU-145 (Homo sapiens, DU-145) it was 0.0521 µM. Further, the IC50 in the experiment on COR-L105 (Homo sapiens, COR-L105) came to 0.711 µM; with NCI-H1975 (Homo sapiens, NCI-H1975), 1.38 µM; in the experiment on EW-7 it was 0.167 µM; in the experiment with LCLC-103H cell line (Homo sapiens, LCLC-103H) it was 0.21 µM; in the experiment on BEN, 7.41 µM; in the experiment with GCT (Homo sapiens, GCT), 0.191 µM. Also, the IC50 came out at 0.202 µM in the experiment on HCT-15 (Homo sapiens, HCT-15); 0.0332 µM with SAS (Homo sapiens, SAS); 1.32 µM in the experiment with DMS-53.
